Data on 4 compounds can be found in ChEMBL document CHEMBL1201862, “PubChem BioAssay data set” (2004).

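96-well plates; 48 h exposure; 5 concentrations. Endpoints by linear interpolation between flanking doses. Not reached: highest tested concentration assigned. Abbreviation: GI50, concentration required for 50% inhibition of growth.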 The source made the active and inactive calls. Rule as the data show it: active = GI50 up to about 1.1 µM and inactive = higher. Some results are limits rather than exact numbers.

Some test systems named below: ACHN; CAKI-1; EKVX; K562; KM-20L2; KM12; LOX IMVI; NCI-H460; OVCAR-8; RPMI-8226; RXF 393; SF-295; SK-OV-3; SNB-19; SW-620; UO-31; HOP-92; NCI-H226; OVCAR-3; SR.
Common to all, as to assay: inhibition of tumour cell growth, NCI panel, 48 h

`c1ccc2c(c1)c1ccccc1c1n[se]nc21`: the GI50 is 31.8 µM (inactive) with ACHN; 36.5 µM (inactive) with CAKI-1; 87.9 µM (inactive) in the experiment on EKVX; > 100 µM (inactive) in the experiment with K562; > 100 µM (inactive) in the experiment on KM-20L2; > 100 µM (inactive) in the experiment with KM12. The GI50 in the experiment with LOX IMVI was > 100 µM (inactive); in the experiment with NCI-H460, 75.3 µM (inactive); in the experiment with OVCAR-8, 50.2 µM (inactive); with RPMI-8226 it was > 100 µM (inactive); in the experiment with RXF 393, 68.5 µM (inactive); with SF-295, 43.9 µM (inactive). Besides, the GI50 with SK-OV-3 is 26 µM (inactive); in the experiment on SNB-19, 35.6 µM (inactive); with SW-620 it was > 100 µM (inactive); in the experiment on UO-31, 33.1 µM (inactive).

On to `CNc1c2cccc(C)c2nc2c(C(=O)NCCN(C)C)cccc12`, for which the GI50 is < 0.024 µM (active) in the experiment with ACHN; < 0.0344 µM (active) with CAKI-1; 0.151 µM (active) in the experiment with EKVX; 0.122 µM (active) in the experiment on HOP-92; 0.0249 µM (active) in the experiment with K562; 0.127 µM (active) in the experiment with KM12. In addition, the GI50 was 0.112 µM (active) in the experiment with LOX IMVI; 0.116 µM (active) in the experiment on NCI-H226; 0.0435 µM (active) in the experiment on NCI-H460; 0.214 µM (active) with OVCAR-3; 0.07 µM (active) in the experiment with OVCAR-8; 0.0604 µM (active) with RPMI-8226. The GI50 in the experiment on RXF 393 was 0.0716 µM (active); in the experiment with SF-295 it was 0.0586 µM (active); in the experiment on SK-OV-3, 0.252 µM (active); in the experiment with SNB-19, 0.0805 µM (active); in the experiment with SR it was < 0.0288 µM (active); in the experiment on SW-620, < 0.0288 µM (active). Besides, the GI50 in the experiment with UO-31 was 0.2 µM (active).

As for `O=C1c2cccc([N+](=O)[O-])c2C(=O)N1c1ncn[nH]1`, the GI50 in the experiment with ACHN is > 100 µM (inactive); with CAKI-1, > 100 µM (inactive); in the experiment with EKVX, 53 µM (inactive); in the experiment with HOP-92, 21.4 µM (inactive); in the experiment on K562 it was > 100 µM (inactive); with KM12 it was > 100 µM (inactive). Moreover, the GI50 in the experiment with LOX IMVI was > 100 µM (inactive); in the experiment on NCI-H226, 81.8 µM (inactive); with NCI-H460, > 100 µM (inactive); in the experiment on OVCAR-3 it was > 100 µM (inactive); with OVCAR-8 it was 79.3 µM (inactive); in the experiment with RPMI-8226, > 100 µM (inactive). Also, the GI50 in the experiment on RXF 393 is 63.2 µM (inactive); with SF-295, 51.5 µM (inactive); in the experiment on SK-OV-3, 32.7 µM (inactive); in the experiment with SNB-19, 29.7 µM (inactive); in the experiment with SR, > 100 µM (inactive); in the experiment on SW-620, > 100 µM (inactive). The GI50 with UO-31 was > 100 µM (inactive).

For the compound `CC(=O)NC(Cc1c[nH]c2ccccc12)C(=O)O` (stereo not drawn), the GI50 in the experiment on ACHN, in the experiment with CAKI-1, with EKVX, in the experiment on HOP-92, in the experiment on K562 and with KM12 was > 100 µM (inactive) each time. The GI50 in the experiment on LOX IMVI, in the experiment on NCI-H226, in the experiment with NCI-H460, in the experiment with OVCAR-3, with OVCAR-8 and in the experiment with RPMI-8226 was > 100 µM (inactive) throughout. In addition, the GI50 with RXF 393, in the experiment with SF-295, with SK-OV-3, with SNB-19, with SR and in the experiment on SW-620 was > 100 µM (inactive) each time. Further, the GI50 with UO-31 is > 100 µM (inactive).
